From patent US20240409585A1, “MACROCYCLIC IMMUNOMODULATORS” (priority 2021, published 2024)
Numbered stars: 1 amine (or outer) side, 2 acyl side, 3 side chain; on linkers, the order of the positions; unused ones are H or OH. Bridge positions count the residues as written; N and C are the ends. Square brackets hold non-standard residues; d marks the D form. Peptide text beside a SMILES is read from it. * marks the point of attachment. ξ: configuration not given here. Phe(4-CONH2) = NC(=O)c1ccc(C[C@H](N)C(=O)O)cc1; Phe(4-COOH) = N[C@@H](Cc1ccc(C(=O)O)cc1)C(=O)O; Bip = N[C@@H](Cc1ccc(-c2ccccc2)cc1)C(=O)O; Phe(3-OMe) = COc1cccc(C[C@H](N)C(=O)O)c1; Phe(3-F) = N[C@@H](Cc1cccc(F)c1)C(=O)O; Phe(3-Me) = Cc1cccc(C[C@H](N)C(=O)O)c1; βAsp = O=C(O)[C@H](CC(=O)[*:2])N[*:1]; Bta = N[C@@H](Cc1csc2ccccc12)C(=O)O; 4Pal = N[C@@H](Cc1ccncc1)C(=O)O; Cha = N[C@@H](CC1CCCCC1)C(=O)O; Cit = NC(=O)NCCC[C@H](N)C(=O)O; Ile(3ξ) = CCC(C)[C@H](N)C(=O)O; Thr(3ξ) = CC(O)[C@H](N)C(=O)O; Carboxymethyl = O=C(O)C*; NMeA = CN[C@@H](C)C(=O)O; Orn = NCCC[C@H](N)C(=O)O; Pra = C#CC[C@H](N)C(=O)O; Dab = NCC[C@H](N)C(=O)O

What follows are compounds tested against T1, PE-labeled human PD-L1-Ig binding to Jurkat cell line over-expressing human PD-1 (Jurkat-PD-1) (Homo sapiens, UniProt Q15116) (assay: Jurkat-PD-1 Cell Binding High-Content Screening Assay (CBA): Method 1). Conditions: Jurkat-hPD-1 cells, PE-labeled PD-L1-Ig 20 nM final; read-out: Jurkat HPDL1 PD1 IC50 (uM) (Method 1).
T1 construct: expressed in transfected cells; host or cells: Jurkat
T1 sequence (Q15116 25-288): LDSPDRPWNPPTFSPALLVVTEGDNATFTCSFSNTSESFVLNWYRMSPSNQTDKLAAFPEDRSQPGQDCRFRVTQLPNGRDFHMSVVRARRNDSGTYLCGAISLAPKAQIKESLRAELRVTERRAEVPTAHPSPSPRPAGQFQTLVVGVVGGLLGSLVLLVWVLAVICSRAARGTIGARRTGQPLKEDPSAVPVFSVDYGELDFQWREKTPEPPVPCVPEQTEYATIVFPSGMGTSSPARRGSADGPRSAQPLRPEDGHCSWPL

| Structure (SMILES) | IC50 |
| --- | --- |
| CCC(C)[C@@H]1NC(=O)[C@H](Cc2ccc(-c3ccccc3)cc2)NC(=O)[C@H](CC(C)C)NC(=O)[C@H](Cc2c[nH]c3ccccc23)NC(=O)[C@H](CC(=O)O)NC(=O)[C@H](Cc2ccc(OCC(=O)O)cc2)NC(=O)[C@H](C(C)O)NC(=O)CSC[C@@H](C(=O)N[C@@H](CC(N)=O)C(=O)O)NC(=O)[C@H](CO)NC(=O)[C@H](C(C)C)NC(=O)[C@H](CC(C)C)NC(=O)[C@H](CCN)NC(=O)[C@@H](CC(C)C)NC(=O)[C@H](C)N(C)C1=O (stereo partly drawn) [Compound 2220] ({CH2CO}-[Thr(3ξ)]Y(Carboxymethyl)DWL[Bip][Ile(3ξ)][NMeA][dL][Dab]LVSCN-OH; thioether N-14) | 0.04 µM |
| C#CC[C@H](NC(=O)C[C@H](NC(=O)[C@@H]1CSCC(=O)N[C@@H](Cc2ccc(OCC(=O)O)cc2)C(=O)N[C@@H](Cc2ccncc2)C(=O)N[C@@H](CC(=O)O)C(=O)N[C@@H](Cc2c[nH]c3ccccc23)C(=O)N[C@@H](CC(C)C)C(=O)N[C@@H](Cc2ccc(-c3ccccc3)cc2)C(=O)N[C@@H](C(C)C)C(=O)N(C)[C@@H](C)C(=O)N[C@H](CC(C)C)C(=O)N[C@@H](CCN)C(=O)N[C@@H](CC2CCCCC2)C(=O)N[C@@H](C(C)C)C(=O)N[C@@H](CO)C(=O)N1)C(=O)O)C(N)=O [Compound 1645] ({CH2CO}-Y(Carboxymethyl)[4Pal]DWL[Bip]V[NMeA][dL][Dab][Cha]VSC[βAsp][Pra]-NH2; thioether N-14) | 0.01 µM |
| CC(C)C[C@@H]1NC(=O)[C@H](Cc2c[nH]c3ccccc23)NC(=O)[C@H](CC(=O)O)NC(=O)[C@H](Cc2ccc(O)cc2)NC(=O)[C@H](Cc2ccccc2)NC(=O)CSC[C@@H](C(=O)NCC(N)=O)NC(=O)[C@H]([C@@H](C)O)NC(=O)[C@H](C(C)C)NC(=O)[C@H](CC(C)C)NC(=O)[C@H](CCN)NC(=O)[C@@H](C)NC(=O)[C@H](C)N(C)C(=O)[C@H](C(C)C)NC(=O)[C@H](Cc2ccc(-c3ccccc3)cc2)NC1=O [Compound 1477] ({CH2CO}-FYDWL[Bip]V[NMeA][dA][Dab]LVTCG-NH2; thioether N-14) | 0.02 µM |
| Cc1cccc(C[C@@H]2NC(=O)[C@H](CC(N)=O)NC(=O)CSC[C@@H](C(=O)N[C@@H](C)C(N)=O)NC(=O)[C@H]([C@@H](C)O)NC(=O)[C@H](C(C)C)NC(=O)[C@H](CC(C)C)NC(=O)[C@H](CCN)NC(=O)[C@@H](CC(C)C)NC(=O)[C@H](C)N(C)C(=O)[C@H](CCCNC(=N)N)NC(=O)[C@H](Cc3ccc(-c4ccccc4)cc3)NC(=O)[C@H](C(C)C)NC(=O)[C@H](Cc3c[nH]c4ccccc34)NC(=O)[C@H](CC(=O)O)NC2=O)c1 [Compound 1305] ({CH2CO}-N[Phe(3-Me)]DWV[Bip]R[NMeA][dL][Dab]LVTCA-NH2; thioether N-14) | 0.2 µM |
| CC(C)C[C@@H]1NC(=O)[C@H](Cc2c[nH]c3ccccc23)NC(=O)[C@H](CC(=O)O)NC(=O)[C@H](Cc2ccc(O)cc2)NC(=O)[C@H](Cc2cnc[nH]2)NC(=O)CSC[C@@H](C(=O)N[C@@H](C)C(N)=O)NC(=O)[C@H](CO)NC(=O)[C@H](C(C)C)NC(=O)[C@H](CC(C)C)NC(=O)[C@H](CC(N)=O)NC(=O)[C@@H](C)NC(=O)[C@H](C)N(C)C(=O)[C@H](C(C)C)NC(=O)[C@H](Cc2ccc(-c3ccccc3)cc2)NC1=O [Compound 1736] ({CH2CO}-HYDWL[Bip]V[NMeA][dA]NLVSCA-NH2; thioether N-14) | 0.02 µM |
| CC(C)C[C@@H]1NC(=O)[C@H](Cc2c[nH]c3ccccc23)NC(=O)[C@H](CC(=O)O)NC(=O)[C@H](Cc2ccc(O)cc2)NC(=O)[C@H](Cc2ccccc2)NC(=O)CSC[C@@H](C(=O)N[C@@H](C)C(N)=O)NC(=O)[C@H](CO)NC(=O)[C@H](C(C)C)NC(=O)[C@H](CC(C)C)NC(=O)[C@H](CCCCN)NC(=O)[C@@H](C)NC(=O)[C@H](C)N(C)C(=O)[C@H](C(C)C)NC(=O)[C@H](Cc2ccc(-c3ccccc3)cc2)NC1=O [Compound 1748] ({CH2CO}-FYDWL[Bip]V[NMeA][dA]KLVSCA-NH2; thioether N-14) | 0.02 µM |
| Cc1cccc(C[C@@H]2NC(=O)[C@H](CC(=O)O)NC(=O)[C@H](Cc3ccc(OCC(=O)O)cc3)NC(=O)[C@H]([C@@H](C)O)NC(=O)CSC[C@@H](C(N)=O)NC(=O)[C@H](CC(N)=O)NC(=O)[C@H](C(C)C)NC(=O)[C@H](CC3CCCCC3)NC(=O)[C@H](CCN)NC(=O)[C@@H](CC(C)C)NC(=O)[C@H](C)N(C)C(=O)[C@H](Cc3ccc(OCC(=O)O)cc3)NC(=O)[C@H](Cc3ccc(-c4ccccc4)cc3)NC(=O)[C@H](Cc3ccc(OCC(=O)O)cc3)NC2=O)c1 [Compound 1669] ({CH2CO}-TY(Carboxymethyl)D[Phe(3-Me)]Y(Carboxymethyl)[Bip]Y(Carboxymethyl)[NMeA][dL][Dab][Cha]VNC-NH2; thioether N-14) | 0.06 µM |
| CC(C)C[C@@H]1NC(=O)[C@H](CCN)NC(=O)[C@@H](CC(C)C)NC(=O)[C@H](C)N(C)C(=O)[C@H](CCCNC(N)=O)NC(=O)[C@H](Cc2ccc(-c3ccccc3)cc2)NC(=O)[C@H](C(C)C)NC(=O)[C@H](Cc2c[nH]c3ccccc23)NC(=O)[C@H](CC(=O)O)NC(=O)[C@H](Cc2ccc(C(=O)O)cc2)NC(=O)[C@H](Cc2ccncc2)NC(=O)CSC[C@@H](C(=O)N[C@@H](C)C(N)=O)NC(=O)[C@H]([C@@H](C)O)NC(=O)[C@H](C(C)C)NC1=O [Compound 1328] ({CH2CO}-[4Pal][Phe(4-COOH)]DWV[Bip][Cit][NMeA][dL][Dab]LVTCA-NH2; thioether N-14) | 0.01 µM |
| CC(C)C[C@@H]1NC(=O)[C@H](CCN)NC(=O)[C@@H](CC(C)C)NC(=O)[C@H](C)N(C)C(=O)[C@H](CCCNC(N)=O)NC(=O)[C@H](Cc2ccc(-c3ccccc3)cc2)NC(=O)[C@H](C(C)C)NC(=O)[C@H](Cc2c[nH]c3ccccc23)NC(=O)[C@H](CC(=O)O)NC(=O)[C@H](Cc2cccc(F)c2)NC(=O)[C@H](CC(N)=O)NC(=O)CSC[C@@H](C(=O)N[C@@H](C)C(N)=O)NC(=O)[C@H]([C@@H](C)O)NC(=O)[C@H](C(C)C)NC1=O [Compound 1315] ({CH2CO}-N[Phe(3-F)]DWV[Bip][Cit][NMeA][dL][Dab]LVTCA-NH2; thioether N-14) | 0.06 µM |
| CC(C)C[C@@H]1NC(=O)[C@H](CCN)NC(=O)[C@@H](CC(C)C)NC(=O)[C@H](C)N(C)C(=O)[C@H](C(C)C)NC(=O)[C@H](Cc2ccc(-c3ccccc3)cc2)NC(=O)[C@H](C(C)C)NC(=O)[C@H](Cc2c[nH]c3ccccc23)NC(=O)[C@H](CC(=O)O)NC(=O)[C@H](Cc2ccc(OCC(=O)O)cc2)NC(=O)[C@H](Cc2ccc(OCC(=O)O)cc2)NC(=O)CSC[C@@H](C(=O)N[C@@H](C)C(N)=O)NC(=O)[C@H]([C@@H](C)O)NC(=O)[C@H](C(C)C)NC1=O [Compound 1567] ({CH2CO}-Y(Carboxymethyl)Y(Carboxymethyl)DWV[Bip]V[NMeA][dL][Dab]LVTCA-NH2; thioether N-14) | 0.02 µM |
| COc1cccc(C[C@@H]2NC(=O)[C@H](CC(=O)O)NC(=O)[C@H](Cc3ccc(O)cc3)NC(=O)[C@H](CC(N)=O)NC(=O)CSC[C@@H](C(=O)N[C@@H](C)C(N)=O)NC(=O)[C@H]([C@@H](C)O)NC(=O)[C@H](C(C)C)NC(=O)[C@H](CC(C)C)NC(=O)[C@H](CCCNC(=N)N)NC(=O)[C@@H](CC(C)C)NC(=O)[C@H](C)N(C)C(=O)[C@H](C(C)C)NC(=O)[C@H](Cc3ccc(-c4ccccc4)cc3)NC(=O)[C@H](C(C)C)NC2=O)c1 [Compound 1292] ({CH2CO}-NYD[Phe(3-OMe)]V[Bip]V[NMeA][dL]RLVTCA-NH2; thioether N-14) | 0.03 µM |
| CC(C)C[C@@H]1NC(=O)[C@H](CCCNC(=N)N)NC(=O)[C@H](Cc2csc3ccccc23)NC(=O)[C@H](C)N(C)C(=O)[C@H](CCCN)NC(=O)[C@H](Cc2ccc(-c3ccccc3)cc2)NC(=O)[C@H](C(C)C)NC(=O)[C@H](Cc2c[nH]c3ccccc23)NC(=O)[C@H](CC(=O)O)NC(=O)[C@H](Cc2ccc(O)cc2)NC(=O)[C@H](Cc2ccccc2)NC(=O)CSC[C@@H](C(=O)N[C@@H](C)C(N)=O)NC(=O)[C@H]([C@@H](C)O)NC(=O)[C@H](C(C)C)NC1=O [Compound 1124] ({CH2CO}-FYDWV[Bip][Orn][NMeA][Bta]RLVTCA-NH2; thioether N-14) | 0.69 µM |
| CC(C)C[C@@H]1NC(=O)[C@H](CCN)NC(=O)[C@@H](CC(C)C)NC(=O)[C@H](C)N(C)C(=O)[C@H](CCCNC(=N)N)NC(=O)[C@H](Cc2ccc(-c3ccccc3)cc2)NC(=O)[C@H](C(C)C)NC(=O)[C@H](Cc2c[nH]c3ccccc23)NC(=O)[C@H](CC(=O)O)NC(=O)[C@H](Cc2ccc(O)cc2)NC(=O)[C@H](Cc2ccccc2)NC(=O)CSC[C@@H](C(=O)N[C@@H](CO)C(N)=O)NC(=O)[C@H]([C@@H](C)O)NC(=O)[C@H](C(C)C)NC1=O [Compound 1178] ({CH2CO}-FYDWV[Bip]R[NMeA][dL][Dab]LVTCS-NH2; thioether N-14) | 0.05 µM |
| CC(C)C[C@@H]1NC(=O)[C@H](CCCNC(=N)N)NC(=O)[C@@H](CC(C)C)NC(=O)[C@H](C)N(C)C(=O)[C@H](CCCNC(=N)N)NC(=O)[C@H](Cc2ccc(-c3ccccc3)cc2)NC(=O)[C@H](C(C)C)NC(=O)[C@H](Cc2c[nH]c3ccccc23)NC(=O)[C@H](CC(=O)O)NC(=O)[C@H](Cc2ccc(C(N)=O)cc2)NC(=O)[C@H](Cc2ccccc2)NC(=O)CSC[C@@H](C(=O)N[C@@H](C)C(N)=O)NC(=O)[C@H]([C@@H](C)O)NC(=O)[C@H](C(C)C)NC1=O [Compound 1099] ({CH2CO}-F[Phe(4-CONH2)]DWV[Bip]R[NMeA][dL]RLVTCA-NH2; thioether N-14) | 0.03 µM |
| Cc1cccc(C[C@@H]2NC(=O)[C@H](CC(=O)O)NC(=O)[C@H](Cc3ccc(C(=O)O)cc3)NC(=O)[C@H](Cc3ccc(OCC(=O)O)cc3)NC(=O)CSC[C@@H](C(N)=O)NC(=O)[C@H](CO)NC(=O)[C@H](C(C)C)NC(=O)[C@H](CC3CCCCC3)NC(=O)[C@H](CC(N)=O)NC(=O)[C@@H](CC(C)C)NC(=O)[C@H](C)N(C)C(=O)[C@H](C(C)C)NC(=O)[C@H](Cc3ccc(-c4ccccc4)cc3)NC(=O)[C@H](CC(C)C)NC2=O)c1 [Compound 1681] ({CH2CO}-Y(Carboxymethyl)[Phe(4-COOH)]D[Phe(3-Me)]L[Bip]V[NMeA][dL]N[Cha]VSC-NH2; thioether N-14) | 0.03 µM |
